# Reference: patent publication US20230132823A1, “BI-FUNCTIONAL COMPOUNDS AND METHODS FOR TARGETED UBIQUITINATION OF ANDROGEN RECEPTOR” (MONTELINO THERAPEUTICS, INC., priority 2020, published 2023)
# System: 22Rv1
# Assay: 22Rv1 cell proliferation assay (Experimental Example 1, cell count)
# Assay type: cell-based
# Conditions: Homo sapiens, 22Rv1, read-out: 22Rv1 cell count decrease at 10 μM for 48 hours; 10 μM (method: four days); read-out: 22Rv1 cell count decrease at 10 μM
# Method: The human prostate cancer cell line, 22Rv1 has been reported to express a high level of AR-V7. […] Standard culture media was RPMI-1640 supplemented with 10% fetal bovine serum. The test compound initially was dissolved in DMSO at 50 mM. This stock solution was then diluted as needed for the indicated concentrations. […]
# In the Table: (+)—the cell count decreased between 0 and 20%; (++)—the cell count decreased […]; (+++)—the cell count decreased by more than 50%.
row,Compound,inhibition at 10 µM
1,"O=C(COc1c(-c2csc(N3CCOCC3)n2)ccc(F)c1F)NCCCCCCCCNc1cccc2c1C(=O)N(C1CCC(=O)NC1=O)C2=O (centres unmarked) [Example 2, 2-(2,3-difluoro-6-(2-morpholinothiazol-4-yl)phenoxy)-N-(8-((2-(2,6-dioxopiperidin-3-yl)-1,3-dioxoisoindolin-4-yl)amino)octyl)acetamide]",0 to 20%
2,"O=C(COc1c(-c2csc(N3CCOCC3)n2)ccc(F)c1F)NCCOCCOCCNc1cccc2c1C(=O)N(C1CCC(=O)NC1=O)C2=O (centres unmarked) [Example 4, 2-(2,3-difluoro-6-(2-morpholinothiazol-4-yl)phenoxy)-N-(2-(2-(2-((2-(2,6-dioxopiperidin-3-yl)-1,3-dioxoisoindolin-4-yl)amino)ethoxy)ethoxy)ethyl)acetamide]",0 to 20%
3,"O=C(COc1c(-c2csc(N3CCOCC3)n2)ccc(F)c1F)NCCOCCOCCOCCNc1cccc2c1C(=O)N(C1CCC(=O)NC1=O)C2=O (centres unmarked) [Example 5, 2-(2,3-difluoro-6-(2-morpholinothiazol-4-yl)phenoxy)-N-(2-(2-(2-(2-((2-(2,6-dioxopiperidin-3-yl)-1,3-dioxoisoindolin-4-yl)amino)ethoxy)ethoxy)ethoxy)ethyl)acetamide]",0 to 20%
4,"O=C(COc1c(-c2csc(N3CCOCC3)n2)ccc(F)c1F)NCCOCCOCCOCCOCCNc1cccc2c1C(=O)N(C1CCC(=O)NC1=O)C2=O (centres unmarked) [Example 6, 2-(2,3-difluoro-6-(2-morpholinothiazol-4-yl)phenoxy)-N-(14-((2-(2,6-dioxopiperidin-3-yl)-1,3-dioxoisoindolin-4-yl)amino)-3,6,9,12-tetraoxatetradecyl)acetamide]",0 to 20%
5,"O=C(COc1cccc2c1C(=O)N(C1CCC(=O)NC1=O)C2=O)NCCCCCCNC(=O)COc1c(-c2csc(N3CCOCC3)n2)ccc(F)c1F (centres unmarked) [Example 7, 2-(2,3-difluoro-6-(2-morpholinothiazol-4-yl)phenoxy)-N-(6-(2-((2-(2,6-dioxopiperidin-3-yl)-1,3-dioxoisoindolin-4-yl)oxy)acetamido)hexyl)acetamide]",0 to 20%
6,"O=C(COc1cccc2c1C(=O)N(C1CCC(=O)NC1=O)C2=O)NCCCCCCCCNC(=O)COc1c(-c2csc(N3CCOCC3)n2)ccc(F)c1F (centres unmarked) [Example 8, 2-(2,3-difluoro-6-(2-morpholinothiazol-4-yl)phenoxy)-N-(8-(2-((2-(2,6-dioxopiperidin-3-yl)-1,3-dioxoisoindolin-4-yl)oxy)acetamido)octyl)acetamide]",0 to 20%
7,"O=C(COc1cccc2c1C(=O)N(C1CCC(=O)NC1=O)C2=O)NCCCCCCCCCCNC(=O)COc1c(-c2csc(N3CCOCC3)n2)ccc(F)c1F (centres unmarked) [Example 9, 2-(2,3-difluoro-6-(2-morpholinothiazol-4-yl)phenoxy)-N-(10-(2-((2-(2,6-dioxopiperidin-3-yl)-1,3-dioxoisoindolin-4-yl)oxy)acetamido)decyl)acetamide]",0 to 20%
8,"O=C(COc1cccc2c1C(=O)N(C1CCC(=O)NC1=O)C2=O)NCCOCCOCCNC(=O)COc1c(-c2csc(N3CCOCC3)n2)ccc(F)c1F (centres unmarked) [Example 10, 2-(2,3-difluoro-6-(2-morpholinothiazol-4-yl)phenoxy)-N-(2-(2-(2-(2-((2-(2,6-dioxopiperidin-3-yl)-1,3-dioxoisoindolin-4-yl)oxy)acetamido)ethoxy)ethoxy)ethyl)acetamide]",0 to 20%
9,"O=C(COc1cccc2c1C(=O)N(C1CCC(=O)NC1=O)C2=O)NCCOCCOCCOCCNC(=O)COc1c(-c2csc(N3CCOCC3)n2)ccc(F)c1F (centres unmarked) [Example 11, 2-(2,3-difluoro-6-(2-morpholinothiazol-4-yl)phenoxy)-N-(1-((2-(2,6-dioxopiperidin-3-yl)-1,3-dioxoisoindolin-4-yl)oxy)-2-oxo-6,9,12-trioxa-3-azatetradecan-14-yl)acetamide]",0 to 20%
10,"O=C1CCC(N2C(=O)c3cccc(NCCOCCOCCOc4c(-c5csc(N6CCOCC6)n5)ccc(F)c4F)c3C2=O)C(=O)N1 (centres unmarked) [Example 12, 4-((2-(2-(2-(2,3-difluoro-6-(2-morpholinothiazol-4-yl)phenoxy)ethoxy)ethoxy)ethyl)amino)-2-(2,6-dioxopiperidin-3-yl)isoindoline-1,3-dione]",0 to 20%
11,"O=C1CCC(N2C(=O)c3cccc(NCCOCCOCCOCCOc4c(-c5csc(N6CCOCC6)n5)ccc(F)c4F)c3C2=O)C(=O)N1 (centres unmarked) [Example 13, 4-((2-(2-(2-(2-(2,3-difluoro-6-(2-morpholinothiazol-4-yl)phenoxy)ethoxy)ethoxy)ethoxy)ethyl)amino)-2-(2,6-dioxopiperidin-3-yl)isoindoline-1,3-dione]",0 to 20%
12,"O=C(COc1cccc2c1C(=O)N(C1CCC(=O)NC1=O)C2=O)NCCOCCOCCOCCOCCOc1c(-c2csc(N3CCOCC3)n2)ccc(F)c1F (centres unmarked) [Example 14, N-(14-(2,3-difluoro-6-(2-morpholinothiazol-4-yl)phenoxy)-3,6,9,12-tetraoxatetradecyl)-2-((2-(2,6-dioxopiperidin-3-yl)-1,3-dioxoisoindolin-4-yl)oxy)acetamide]",0 to 20%
13,"Cc1ncsc1-c1ccc([C@H](C)NC(=O)[C@@H]2C[C@@H](O)CN2C(=O)[C@@H](NC(=O)CCCNC(=O)COc2c(-c3csc(N4CCOCC4)n3)ccc(F)c2F)C(C)(C)C)cc1 [Example 15, (2S,4R)-1-((S)-2-(4-(2-(2,3-difluoro-6-(2-morpholinothiazol-4-yl)phenoxy)acetamido)butanamido)-3,3-dimethylbutanoyl)-4-hydroxy-N-((S)-1-(4-(4-methylthiazol-5-yl)phenyl)ethyl)pyrrolidine-2-carboxamide]",< 50%
14,"Cc1ncsc1-c1ccc([C@H](C)NC(=O)[C@@H]2C[C@@H](O)CN2C(=O)[C@@H](NC(=O)CCCCCNC(=O)COc2c(-c3csc(N4CCOCC4)n3)ccc(F)c2F)C(C)(C)C)cc1 [Example 17, (2S,4R)-1-((S)-2-(6-(2-(2,3-difluoro-6-(2-morpholinothiazol-4-yl)phenoxy)acetamido)hexanamido)-3,3-dimethylbutanoyl)-4-hydroxy-N-((S)-1-(4-(4-methylthiazol-5-yl)phenyl)ethyl)pyrrolidine-2-carboxamide]",< 50%
15,"Cc1ncsc1-c1ccc([C@H](C)NC(=O)[C@@H]2C[C@@H](O)CN2C(=O)[C@@H](NC(=O)CCCCCCNC(=O)COc2c(-c3csc(N4CCOCC4)n3)ccc(F)c2F)C(C)(C)C)cc1 [Example 18, (2S,4R)-1-((S)-2-(7-(2-(2,3-difluoro-6-(2-morpholinothiazol-4-yl)phenoxy)acetamido)heptanamido)-3,3-dimethylbutanoyl)-4-hydroxy-N-((S)-1-(4-(4-methylthiazol-5-yl)phenyl)ethyl)pyrrolidine-2-carboxamide]",< 50%
16,"Cc1ncsc1-c1ccc([C@H](C)NC(=O)[C@@H]2C[C@@H](O)CN2C(=O)[C@@H](NC(=O)COCCCNC(=O)COc2c(-c3csc(N4CCOCC4)n3)ccc(F)c2F)C(C)(C)C)cc1 [Example 19, (2S,4R)-1-((S)-2-(2-(3-(2-(2,3-difluoro-6-(2-morpholinothiazol-4-yl)phenoxy)acetamido)propoxy)acetamido)-3,3-dimethylbutanoyl)-4-hydroxy-N-((S)-1-(4-(4-methylthiazol-5-yl)phenyl)ethyl)pyrrolidine-2-carboxamide]",< 50%
17,"Cc1ncsc1-c1ccc([C@H](C)NC(=O)[C@@H]2C[C@@H](O)CN2C(=O)[C@@H](NC(=O)COCCOCCNC(=O)COc2c(-c3csc(N4CCOCC4)n3)ccc(F)c2F)C(C)(C)C)cc1 [Example 20, (2S,4R)-1-((S)-2-(tert-butyl)-14-(2,3-difluoro-6-(2-morpholinothiazol-4-yl)phenoxy)-4,13-dioxo-6,9-dioxa-3,12-diazatetradecanoyl)-4-hydroxy-N-((S)-1-(4-(4-methylthiazol-5-yl)phenyl)ethyl)pyrrolidine-2-carboxamide]",< 50%
18,"Cc1ncsc1-c1ccc([C@H](C)NC(=O)[C@@H]2C[C@@H](O)CN2C(=O)[C@@H](NC(=O)CCCCCCCOc2c(-c3csc(N4CCOCC4)n3)ccc(F)c2F)C(C)(C)C)cc1 [Example 21, (2S,4R)-1-((S)-2-(8-(2,3-difluoro-6-(2-morpholinothiazol-4-yl)phenoxy)octanamido)-3,3-dimethylbutanoyl)-4-hydroxy-N-((S)-1-(4-(4-methylthiazol-5-yl)phenyl)ethyl)pyrrolidine-2-carboxamide]",< 50%
19,"Cc1ncsc1-c1ccc([C@H](CC(=O)NCCCCNC(=O)COc2c(-c3csc(N4CCOCC4)n3)ccc(F)c2F)NC(=O)[C@@H]2C[C@@H](O)CN2C(=O)[C@@H](NC(=O)C2(F)CC2)C(C)(C)C)cc1 [Example 22, (2S,4R)-N-((S)-3-((4-(2-(2,3-difluoro-6-(2-morpholinothiazol-4-yl)phenoxy)acetamido)butyl)amino)-1-(4-(4-methylthiazol-5-yl)phenyl)-3-oxopropyl)-1-((S)-2-(1-fluorocyclopropane-1-carboxamido)-3,3-dimethylbutanoyl)-4-hydroxypyrrolidine-2-carboxamide]",0 to 20%
20,"Cc1ncsc1-c1ccc([C@H](CC(=O)NCCCCCCNC(=O)COc2c(-c3csc(N4CCOCC4)n3)ccc(F)c2F)NC(=O)[C@@H]2C[C@@H](O)CN2C(=O)[C@@H](NC(=O)C2(F)CC2)C(C)(C)C)cc1 [Example 23, (2S,4R)-N-((S)-3-((6-(2-(2,3-difluoro-6-(2-morpholinothiazol-4-yl)phenoxy)acetamido)hexyl)amino)-1-(4-(4-methylthiazol-5-yl)phenyl)-3-oxopropyl)-1-((S)-2-(1-fluorocyclopropane-1-carboxamido)-3,3-dimethylbutanoyl)-4-hydroxypyrrolidine-2-carboxamide]",0 to 20%
